Test results published in ChEMBL document CHEMBL3132783, “Design, synthesis and biological evaluation of novel ligustrazinylated derivatives as potent cardiovascular agents” (Medchemcomm, 2013).

What was measured:
[1] = Antiplatelet activity in rabbit platelet rich plasma assessed as inhibition of ADP-induced aggregation at 0.1 mM treated for 5 mins prior to ADP-challenge relative to control; format: functional; conditions: Oryctolagus cuniculus
[2] = Cytoprotective activity in H2O2-induced human ECV304 cells assessed as proliferation rate incubated for 24 hrs prior to H2O2-challenge measured after 12 hrs by MTT assay; format: functional, cell-based; conditions: ECV-304
[3] = Cytoprotective activity in H2O2-induced human ECV304 cells assessed as proliferation rate at 100 uM incubated for 24 hrs prior to H2O2-challenge measured after 12 hrs by MTT assay relative to control; format: functional; conditions: ECV-304, read-out: Activity
[4] = Antiplatelet activity in rabbit platelet rich plasma assessed as inhibition of ADP-induced aggregation treated for 5 mins prior to ADP-challenge; format: functional; conditions: Oryctolagus cuniculus
[5] = Cytoprotective activity in H2O2-induced human ECV304 cells assessed as proliferation rate at 12.5 uM incubated for 24 hrs prior to H2O2-challenge measured after 12 hrs by MTT assay relative to control; format: functional; conditions: ECV-304, read-out: Activity
[6] = Cytoprotective activity in H2O2-induced human ECV304 cells assessed as proliferation rate at 50 uM incubated for 24 hrs prior to H2O2-challenge measured after 12 hrs by MTT assay relative to control; format: functional; conditions: ECV-304, read-out: Activity
[7] = Cytoprotective activity in H2O2-induced human ECV304 cells assessed as proliferation rate at 25 uM incubated for 24 hrs prior to H2O2-challenge measured after 12 hrs by MTT assay relative to control; format: functional; conditions: ECV-304, read-out: Activity
[8] = Antiplatelet activity in rabbit platelet rich plasma assessed as inhibition of ADP-induced aggregation at 0.4 mM treated for 5 mins prior to ADP-challenge relative to control; format: functional; conditions: Oryctolagus cuniculus
[9] = Antiplatelet activity in rabbit platelet rich plasma assessed as inhibition of ADP-induced aggregation at 0.2 mM treated for 5 mins prior to ADP-challenge relative to control; format: functional; conditions: Oryctolagus cuniculus
[10] = Antiplatelet activity in rabbit platelet rich plasma assessed as inhibition of ADP-induced aggregation at 0.05 mM treated for 5 mins prior to ADP-challenge relative to control; format: functional; conditions: Oryctolagus cuniculus
ECV-304 = assay: Ratio of ligustrazine EC50 to compound EC50 for human ECV304 cells; format: functional

Row | Compound | inhibition at 100 µM [1] [%] | EC50 [2] [µM] | growth at 100 µM [3] [%] | IC50 [4] [µM] | growth at 12.5 µM [5] [%] | growth at 50 µM [6] [%] | growth at 25 µM [7] [%] | inhibition at 400 µM [8] [%] | inhibition at 200 µM [9] [%] | inhibition at 50 µM [10] [%] | Ratio EC50 (ECV-304)
1 | Cc1nc(C)c(COc2ccc3ccc(=O)oc3c2)nc1C | 25 | 140 | 46.6 | 1300 | 38.8 | 44.2 | 42 | 39.2 | 35.1 | 21.7 | –
2 | Cc1nc(C)c(CSc2nnnn2-c2ccccc2)nc1C | 12.3 | – | -136 | > 2000 | -135 | -78.4 | -119 | 9.33 | 4.93 | -4.07 | –
3 | Cc1nc(C)c(CSc2nnnn2-c2cccc3ccccc23)nc1C | 10.2 | – | – | > 2000 | – | – | – | 13.1 | 5.75 | 2.25 | –
4 | CSc1snc(OCc2nc(C)c(C)nc2C)c1C#N | 13.5 | > 100000 | – | 1500 | – | 160 | 25.2 | 32.2 | 22.6 | 3.36 | –
5 | Cc1nc(C)c(Cn2nnc3ccccc32)nc1C | 7.23 | > 100000 | -178 | 1800 | 23.2 | -96.5 | 25.1 | 28.3 | 16.9 | -2.21 | –
6 | Cc1nc(C)c(Cn2cnc3ccccc32)nc1C | 11 | – | – | 1900 | -91.8 | 0.25 | -13.8 | 30.9 | 13.1 | -0.97 | –
7 | Cc1nc(C)c(CNC(=O)CN2CCCC2=O)nc1C | 10.4 | 1300 | 26.4 | 1200 | -35.8 | 23.4 | 14.5 | 36 | 19.6 | 3.23 | –
8 | Cc1nc(C)c(COC(=O)CCCC[C@@H]2CCSS2)nc1C | 13.4 | 4 | 206 | > 2000 | -60 | 160 | 71.4 | 27.6 | 29 | 18.8 | 150
9 | C=CCSSCc1nc(C)c(C)nc1C | 18 | 1100 | 51.1 | 1300 | 13 | 15 | -17.6 | 38.1 | 30.4 | 16.7 | –
10 | C=CCc1ccc(OCc2nc(C)c(C)nc2C)c(OC)c1 | 1.45 | 200 | 36 | > 2000 | 22 | 30.1 | 28.2 | 6.42 | 12.3 | -4.29 | –
11 | Cc1nc(C)c(COc2ccc3c(C)cc(=O)oc3c2)nc1C | 8.73 | 140 | 36.6 | 920 | 12 | 25.8 | 21 | 40.1 | 17.2 | 2.27 | –
12 | Cc1nc(C)c(CSc2nnc(-c3cccs3)n2N)nc1C | 13.4 | 330 | 40.2 | 810 | 36.2 | 38.2 | 37.4 | 38.5 | 23.2 | 0.15 | –
13 | Cc1nc(C)c(CSc2nc(C)c(CC(=O)O)s2)nc1C | 35 | 150 | 48.1 | 620 | 44.9 | 47 | 46.2 | 46.9 | 38.3 | 27.5 | –
14 | Cc1nc(C)c(CSc2nnnn2C)nc1C | 4.04 | – | -117 | > 2000 | – | -77 | -180 | 9.95 | 13.5 | 1.53 | –
15 | Cc1nc(C)c(CSc2nc3ccccc3s2)nc1C | 13.4 | 360 | 17.2 | 1600 | 4.33 | 9.51 | 7.95 | 33.4 | 20.9 | 5.12 | –
16 | Cc1nc(C)c(CSc2nnc(-c3ccco3)n2N)nc1C | 10.4 | 420 | 25.8 | 940 | 19 | 23.5 | 21.3 | 35.6 | 20 | -2.62 | –
17 | CCOC(=O)c1ccccc1OCc1nc(C)c(C)nc1C | 10.8 | 1000 | 20 | 2000 | 17.3 | 19.2 | 18.1 | 21.2 | 16.8 | 8.7 | –
18 | CCOC(=O)c1ccc(OCc2nc(C)c(C)nc2C)c(OC)c1 | 3.1 | 3200 | 16 | > 2000 | 14.9 | 15.8 | 15.5 | -3.31 | 7.48 | 9.7 | –
19 | Cc1nc(C)c(COc2ccccc2C(=O)O)nc1C | 32 | 610 | 20 | 400 | 14.1 | 18.2 | 17.4 | 51.7 | 34.6 | 15.6 | –
20 | COc1cc(C(=O)O)ccc1OCc1nc(C)c(C)nc1C | 1.01 | 810 | 19 | > 2000 | 15.1 | 18.4 | 16.4 | 4.41 | -11.2 | 11.2 | –
21 | Cc1nc(C)c(C)nc1C [LIGUSTRAZINE] | – | 600 | 42.8 | – | 10.4 | 22.1 | 12.7 | – | – | – | –
22 | O=C(O)CCCCC1CCSS1 (stereo not drawn) [LIPOIC ACID, ALPHA] | – | 68 | 58.1 | – | 30.5 | 48.7 | -12.3 | – | – | – | –
23 | O=C(O)/C=C/c1ccc(Cn2ccnc2)cc1 [OZAGREL] | 27.3 | – | – | 360 | – | – | – | 55.3 | 45.4 | 23.3 | –
